Measurements from patent US5145783A, “Glyphosate-tolerant 5-endolpyruvyl-3-phosphoshikimate synthase” (Monsanto Company, priority 1990, dated 1992).
“Also recorded” adds a separate entry of the source.

Experiments:
[1] = biological target: T1, wild-type maize EPSP synthase (Zea mays, UniProt A0A1D6NVZ6); test: EPSP synthase activity of in vitro translation product of pMON9951; assay type: biochemical; conditions: 1.0 mM glyphosate
T1 sequence (A0A1D6NVZ6 1-506): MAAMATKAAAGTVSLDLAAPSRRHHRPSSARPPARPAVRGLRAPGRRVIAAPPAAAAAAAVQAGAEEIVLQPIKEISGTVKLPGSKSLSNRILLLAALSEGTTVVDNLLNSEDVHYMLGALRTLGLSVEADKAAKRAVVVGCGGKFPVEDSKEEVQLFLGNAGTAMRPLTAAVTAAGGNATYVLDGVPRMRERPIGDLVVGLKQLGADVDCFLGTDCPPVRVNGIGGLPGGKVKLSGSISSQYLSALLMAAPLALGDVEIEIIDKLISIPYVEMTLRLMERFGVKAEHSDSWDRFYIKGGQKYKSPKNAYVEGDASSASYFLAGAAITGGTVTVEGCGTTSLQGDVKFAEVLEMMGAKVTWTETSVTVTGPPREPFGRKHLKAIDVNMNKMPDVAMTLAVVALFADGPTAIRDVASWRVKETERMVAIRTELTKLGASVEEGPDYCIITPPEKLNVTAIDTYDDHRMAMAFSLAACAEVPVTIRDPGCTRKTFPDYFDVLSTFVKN
Method: (§1) The linearized plasmid DNA was transcribed in vitro with T7 polymerase essentially as described by Krieg et al. 1984. The standard reaction buffer contained 40 mM Tris-HCl (pH 7.9), 6 mM MgCl2, 10 mM dithiothreitol, 2 mM spermidine, 80 U RNAsin ribuonuclease inhibitor, 0.5 mM each of ATP, GTP, CTP and UTP, in a final reaction volume of 100 μl. The final RNA pellet was resuspended in 20 μl of sterile water and stored at -80° C. A standard translation reaction contained 100 μl of nuclease-treated rabbit reticulocyte lysate, 5.7 μl of a 19-amino acid mixture (minus methionine at 1 mM each, 5.7 μl of RNA (total RNA transcripts derived from 0.63 μg of plasmid DNA), 16 μl RNAsin (20U/μl) ribonuclease inhibitor, and 58.3 μl of [^35 S] methionine (14-15 mCi/ml). The in vitro translation products were stored frozen at -80 ° C.
(§2) The products of the in vitro translation were then assayed for EPSP synthase activity as described herein.

[2] = biological target: T2, mutant maize pre-EPSP synthase (alanine for second glycine) (Zea mays, UniProt A0A1D6NVZ6, G163A); test: EPSP synthase activity of in vitro translation product of pMON9960; assay type: biochemical
T2 construct: full-length cDNA pre-enzyme with chloroplast transit peptide, T7 in vitro transcription, rabbit reticulocyte lysate translation
Method: as §1, §2

[3] = system: petunia plants transformed with chimeric EPSP synthase gene (pMON546); test: Plant response to glyphosate spraying, transformed plants; assay type: in vivo; conditions: 0.8 #/acre acid equivalent, isopropylamine salt sprayed
Method: Four individual representative transgenic seedlings were selected, grown and tested in the testing procedure described below, along with four individual non-transformed (wild-type) petunia seedlings.
The plants were grown in a growth medium in a growth chamber at 26° C. with 12 hours of light per day. The plants were fertilized weekly with a soluble fertilizer and watered as needed. The plants were sprayed at a uniform and reproducible delivery rate of herbicide by use of an automated track sprayer. The glyphosate solution used was measured as pounds of glyphosate acid equivalents per acre, mixed as the glyphosate isopropylamine salt, with an ionic surfactant.
Four individual wild-type (non-transformed) petunia plants were selected for use as control plants. Four individual transformed plants containing the pMON546 vector were selected by kanamycin resistance as described in Horsch et al. (1985).
The control plants and the transformed plants were sprayed with the isopropylamine salt of glyphosate at the application level listed in Table 2 below; the experimental results obtained are also summarized in Table 2.

T2 sequence (A0A1D6NVZ6 entry or part of it G163A): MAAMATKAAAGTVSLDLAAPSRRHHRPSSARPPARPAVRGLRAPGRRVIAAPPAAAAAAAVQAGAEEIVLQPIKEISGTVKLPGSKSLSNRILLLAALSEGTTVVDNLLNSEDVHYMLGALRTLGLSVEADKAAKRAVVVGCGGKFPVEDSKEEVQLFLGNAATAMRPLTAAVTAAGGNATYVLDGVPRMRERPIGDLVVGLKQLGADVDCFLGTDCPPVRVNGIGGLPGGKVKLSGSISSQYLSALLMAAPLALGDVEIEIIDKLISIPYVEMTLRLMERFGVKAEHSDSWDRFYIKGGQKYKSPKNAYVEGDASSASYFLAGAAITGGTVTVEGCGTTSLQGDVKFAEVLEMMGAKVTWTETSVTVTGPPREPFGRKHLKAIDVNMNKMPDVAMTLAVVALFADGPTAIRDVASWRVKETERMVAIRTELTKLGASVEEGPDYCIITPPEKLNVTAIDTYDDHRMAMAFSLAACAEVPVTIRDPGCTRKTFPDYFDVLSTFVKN

O=C(O)CNCP(=O)(O)O [glyphosate, N-phosphonomethylglycine]
EPSP synthase activity in the presence of glyphosate [1]: no activity was detected
inhibition of EPSP synthase activity ([2]; 1 mM glyphosate, product of pMON9960): only slightly inhibited
EPSP synthase activity in the presence of glyphosate ([2]; 100 mM glyphosate, product of pMON9960): still showing detectable activity
inhibition at 10000 µM ([2]; read-out: inhibition of EPSP synthase activity): 25%
Visual Appearance [3]: growing well; also recorded: healthy and viable
